Measurements reported in patent US5624950A, “Perhydroisoindole derivatives as substance P antagonists” (Rhone-Poulenc Rorer S.A., priority 1993, dated 1997).

Tested on: capillary permeability brought about by septide (substance P agonist)
Assay: inhibition of the increase of capillary permeability brought about by septide
Format: in vivo
Settings: Cavia porcellus, guinea pig, septide-induced capillary permeability
Text: The study of certain isoindole derivatives of general formula (I) in the technique of A. Saria et al., Arch.

COc1ccccc1[C@H](C)C(=O)N1C[C@H]2C[C@H](C)C[C@](O)(c3ccccc3OC)[C@H]2C1 (relative stereo) [Example 1, (3aR*,4R*,6S*,7aS*)-4-(2-methoxyphenyl)-2-[2-(S)-(2-methoxyphenyl)propionyl]-6-methyl-4-perhydroisoindolol]
ED50 (iv): 0.07 mg/kg
ED50 (po): 3 to 10 mg/kg
